The target of one data set is T1, human GLP-1 receptor (Homo sapiens, UniProt P43220).
T1 construct: expressed in transfected cells
In words: cAMP production in cell line stably transformed with human GLP1 receptor, 30 min co-incubation (HTRF). Type of data set: cell-based. Particulars: CHO-K1/GLP-1R/CRE-luc cells, stimulation for 0.5 h, read-out: EC50. Here is the method: The purpose of this assay example is to test the ability of the compound to activate the human GLP-1 receptor on cell surface. The EC50 for stimulated cAMP production after activation characterizes the ability of the compound to activate the human GLP-1 receptor.
In this experiment, the compound and cells were co-incubated for 30 min.
Frozen cell line CHO-K1/GLP-1R/CRE-luc stably transformed with human GLP1 receptor was removed from a liquid nitrogen tank, and was placed in a 37°C water bath for rapid thawing. The cells were resuspended in DMEM/F12 medium, and after centrifugation, were washed once. The cells were resuspended in an experimental buffer, i.e., DMEM/F12 medium containing 0.1% casein. After centrifugation, cell density was adjusted using the experimental buffer. The cells were plated onto a 384-well plate at a density of 1500 cells/5 µL/well. Then, each well was added with 2.5 µL of IBMX working solution prepared with the buffer, the final concentration of IBMX being 0.5 mM, and 2.5 µL of a serially diluted compound sample (starting from […], 3-fold dilution, 12 concentrations). The plate was centrifuged at 1000 rpm for 1 min, and was stood for incubation at 37°C for 0.5 h. Determination was performed using the Cisbio cAMP - Gs Dynamic kit. cAMP-d2 and anti-cAMP-Eu3+-Cryptate were diluted 18-fold and 20-fold respectively with cAMP Lysis & Detection Buffer, and were respectively mixed homogeneously. Each well was added with 5 µL of diluted cAMP-d2 solution, and the plate was centrifuged at 1000 rpm for 1 min, and shaken for 30 seconds for homogeneous mixing. Then, each well was added with 5 µL of diluted anti-cAMP-Eu3+-Cryptate solution, and the plate was centrifuged at 1000 rpm for 1 min and was incubated in the dark at room temperature for 1 h. HTRF signals were read using the Biotek Synergy H1 microplate reader, the excitation wavelength being 320 nm and the emission wavelengths being 620 nm and 665 nm.
The signal-to-signal ratio was calculated (665 nm/620 nm * 10,000). Nonlinear fitting between the signal-to-signal ratio and the sample concentration was performed in GraphPad Prism 10 using a four-parameter equation to obtain the EC50 value.
(Changes in cAMP serve as a functional read-out for many G protein-coupled receptors.)

Data set [1] in a line: Pharmacokinetic evaluation in mice, oral administration. Format: in vivo, Balb/c mice. Particulars: p.o. 5 mg/kg, plasma, not marked single PK (cassette PK). Here is the method:
Balb/c mice were used as test animals to study the pharmacokinetic behavior of the compound of the present invention in mice (plasma) at a dose of 5 mg/kg administered orally and 1 mg/kg administered intravenously.
Balb/c mice, 3 per group, male.
Preparation of drug for oral administration: 10%PEG400/10%PG/80% glycine buffer (100 mM glycine, 64 Mm NaOH, […]) buffer.
10 ml of PEG400, 10 ml of PG, and 80 ml of (100 mM glycine, 64 Mm NaOH, pH = 9) were measured into a 100 ml volumetric flask, vortexed, mixed homogeneously, and sonicated to obtain a clear solution.
Single PK: An example compound was weighed into a 4 mL glass bottle. The solution was added, and sonication was performed for 10 min to obtain a colorless clear solution having a concentration of 0.5 mg/mL.
The solution was added, and sonication was performed for 10 min to obtain a colorless clear solution having a concentration of 0.5 mg/mL.
Three Balb/c mice, male, respectively administered p.o. after fasting overnight, at a dose of 5 mg/kg and in an administration volume of 10 mL/kg.
The blood samples were placed in EDTA-K2 anticoagulant tubes and centrifuged at 6000 rpm at 4°C for 6 min to separate plasma, which was stored at -80°C. The mice were fed 4 h after administration.
• 1) 40 µL of a plasma sample was added with 160 µL of acetonitrile for precipitation, and after mixing, the mixture was centrifuged at 3500 × g for 5 to 20 min. • 2) The supernatant solution after treatment was taken for LC/MS/MS analysis of the concentration of the test compound. The LC/MS/MS analysis instrument was AB Sciex API 4000 Qtrap.
• Liquid phase condition: Shimadzu LC-20AD pump • Chromatographic column: Agilent ZORBAX XDB-C18 (50×2.1 mm, 3.5 µm) Mobile phase: Solution A was 0.1% formic acid aqueous solution, and Solution B was acetonitrile • Flow rate: 0.4 mL/min • Elution time: 0-4.0 min, the eluent was as follows:
Main pharmacokinetic parameters were calculated using WinNonlin 6.1.

T1 sequence (P43220 24-463): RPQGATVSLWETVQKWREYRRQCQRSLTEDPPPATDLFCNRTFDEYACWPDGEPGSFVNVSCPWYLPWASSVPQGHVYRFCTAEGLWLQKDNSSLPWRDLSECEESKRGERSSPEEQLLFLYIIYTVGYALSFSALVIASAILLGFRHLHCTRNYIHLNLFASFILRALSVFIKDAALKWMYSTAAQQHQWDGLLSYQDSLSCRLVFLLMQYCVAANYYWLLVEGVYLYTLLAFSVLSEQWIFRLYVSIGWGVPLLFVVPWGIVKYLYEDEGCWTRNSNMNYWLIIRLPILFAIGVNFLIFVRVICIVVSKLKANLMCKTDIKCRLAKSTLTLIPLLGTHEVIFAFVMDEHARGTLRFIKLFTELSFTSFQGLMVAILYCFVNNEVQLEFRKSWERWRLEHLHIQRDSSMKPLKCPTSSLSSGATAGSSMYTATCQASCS

With `Cc1cc(-n2nc3c(c2-n2ccn(-c4ccc5c(c4)OCc4nnc(C)n4-5)c2=O)[C@H](C)N(C(=O)c2cc4cc([C@H]5CCOC(C)(C)C5)ccc4n2[C@@]2(c4noc(=O)[nH]4)C[C@@H]2C)CC3)cc(C)c1F` [Example 19], the EC50 at human GLP-1 receptor came to 0.88 nM.

As to `Cc1cc(-n2nc3c(c2-n2ccn(-c4ccc5c(c4)CCc4nnc(C)n4-5)c2=O)[C@H](C)N(C(=O)c2cc4cc([C@H]5CCOC(C)(C)C5)ccc4n2[C@@]2(c4noc(=O)[nH]4)C[C@@H]2C)CC3)cc(C)c1F` [Example 8], on human GLP-1 receptor, the concentration giving a half-maximal response (EC50) is 0.51 nM.

Turning to `Cc1cc(-n2nc3c(c2-n2ccn(-c4ccc(CC(=O)N(C)C)cc4F)c2=O)[C@H](C)N(C(=O)c2cc4cc([C@H]5CCOC(C)(C)C5)ccc4n2[C@@]2(c4noc(=O)[nH]4)C[C@@H]2C)CC3)cc(C)c1F` [Example 7], the EC50 on human GLP-1 receptor is 0.3 nM. Besides, in data set [1] (mouse, in vivo, po), the total exposure AUC(0-inf) was found to be 10800 ng·h/mL, the AUC(0-t) turned out to be 10300 ng·h/mL, the Cmax stood at 2970 ng/mL and the time of peak concentration (Tmax) came to 0.5 h. Besides, the MRT inf in data set [1] (mouse, in vivo, po, read-out: MRT 0-∞) was found to be 2.8 h. Moreover, the tl/2 in data set [1] turned out to be 1.6 h.

Turning to `Cc1cc(-n2nc3c(c2-n2ccn(-c4ccc5c(c4F)CCc4nnc(C)n4-5)c2=O)[C@H](C)N(C(=O)c2cc4cc([C@H]5CCOC(C)(C)C5)ccc4n2[C@@]2(c4noc(=O)[nH]4)C[C@@H]2C)CC3)cc(C)c1F` [Example 339], at human GLP-1 receptor, the EC50 turned out to be 0.51 nM.

As for `Cc1cc(-n2nc3c(c2-n2ccn(-c4ccc(N=S(C)(C)=O)cc4F)c2=O)[C@H](C)N(C(=O)c2cc4cc([C@H]5CCOC(C)(C)C5)ccc4n2[C@@]2(c4noc(=O)[nH]4)C[C@@H]2C)CC3)cc(C)c1F` [Example 1], at human GLP-1 receptor, the concentration for a half-maximal effect (EC50) is 0.37 nM.

As for `Cc1cc(-n2nc3c(c2-n2ccn(-c4ccc5c(c4F)C4(CC4)C(=O)N5C)c2=O)[C@H](C)N(C(=O)c2cc4cc([C@H]5CCOC(C)(C)C5)ccc4n2[C@@]2(c4noc(=O)[nH]4)C[C@@H]2C)CC3)cc(C)c1F` [Example 15], the 50% effective concentration (EC50) on human GLP-1 receptor was found to be 0.32 nM.

Take `Cc1cc(-n2nc3c(c2-n2ccn(-c4ccc5c(c4)CCc4nnnn4-5)c2=O)[C@H](C)N(C(=O)c2cc4cc([C@H]5CCOC(C)(C)C5)ccc4n2[C@@]2(c4noc(=O)[nH]4)C[C@@H]2C)CC3)cc(C)c1F` [Example 342]: the EC50 at human GLP-1 receptor amounted to 1.5 nM.

As to `[2H]C([2H])([2H])N1C(=O)C2CC2c2cc(-n3ccn(-c4c5c(nn4-c4cc(C)c(F)c(C)c4)CCN(C(=O)c4cc6cc([C@H]7CCOC(C)(C)C7)ccc6n4[C@@]4(c6noc(=O)[nH]6)C[C@@H]4C)[C@H]5C)c3=O)ccc21` (some centres unmarked) [Example 61], the 50% effective concentration (EC50) on human GLP-1 receptor was 1.39 nM.

Usually EC50 stands for the concentration needed to bring the measured effect to its halfway point. Broadly, the AUC(0-inf) is total exposure, with the tail of the curve extrapolated. Broadly, the AUC(0-t) is exposure summed from dosing to a finite time, without extrapolation to infinity. As a reminder, the Cmax is the peak of the concentration-time curve. The term Tmax denotes the time from dosing to the highest level.

These data come from patent publication EP4755885A1 (Shanghai Hansoh Biomedical Co., Ltd., priority 2023, dated 2025).
